“Also recorded” adds a separate entry of the source. Where a name gives a salt, the structure may show the parent alone.
How the values were obtained:
[1] = system: BBB transport of 125I-ANG1005; experiment: brain 125I-ANG1005 uptake with co-perfused transport inhibitors; type: in vivo, rat; settings: P>0.05
[2] = male, Sprague Dawley, rat, in vivo
[3] = female, NuNu, mouse, in vivo, 30 min
[4] = cited from earlier work
[5] = in situ rat brain perfusion, BBB transfer coefficient; settings: P>0.05
[6] = system: brain endothelial monolayer system; settings: cited from earlier work
[7] = target: low density lipoprotein receptor-related protein (LRP) (Rattus norvegicus, UniProt G3V928); experiment: brain 125I-ANG1005 uptake with co-perfused unlabeled angiopep-2 or LRP ligands; type: in vivo; settings: co-perfusion 120 s with 10 or 100 μM unlabeled angiopep-2, P<0.05
Chain of low density lipoprotein receptor-related protein (LRP) (G3V928 20-3944 limits assumed): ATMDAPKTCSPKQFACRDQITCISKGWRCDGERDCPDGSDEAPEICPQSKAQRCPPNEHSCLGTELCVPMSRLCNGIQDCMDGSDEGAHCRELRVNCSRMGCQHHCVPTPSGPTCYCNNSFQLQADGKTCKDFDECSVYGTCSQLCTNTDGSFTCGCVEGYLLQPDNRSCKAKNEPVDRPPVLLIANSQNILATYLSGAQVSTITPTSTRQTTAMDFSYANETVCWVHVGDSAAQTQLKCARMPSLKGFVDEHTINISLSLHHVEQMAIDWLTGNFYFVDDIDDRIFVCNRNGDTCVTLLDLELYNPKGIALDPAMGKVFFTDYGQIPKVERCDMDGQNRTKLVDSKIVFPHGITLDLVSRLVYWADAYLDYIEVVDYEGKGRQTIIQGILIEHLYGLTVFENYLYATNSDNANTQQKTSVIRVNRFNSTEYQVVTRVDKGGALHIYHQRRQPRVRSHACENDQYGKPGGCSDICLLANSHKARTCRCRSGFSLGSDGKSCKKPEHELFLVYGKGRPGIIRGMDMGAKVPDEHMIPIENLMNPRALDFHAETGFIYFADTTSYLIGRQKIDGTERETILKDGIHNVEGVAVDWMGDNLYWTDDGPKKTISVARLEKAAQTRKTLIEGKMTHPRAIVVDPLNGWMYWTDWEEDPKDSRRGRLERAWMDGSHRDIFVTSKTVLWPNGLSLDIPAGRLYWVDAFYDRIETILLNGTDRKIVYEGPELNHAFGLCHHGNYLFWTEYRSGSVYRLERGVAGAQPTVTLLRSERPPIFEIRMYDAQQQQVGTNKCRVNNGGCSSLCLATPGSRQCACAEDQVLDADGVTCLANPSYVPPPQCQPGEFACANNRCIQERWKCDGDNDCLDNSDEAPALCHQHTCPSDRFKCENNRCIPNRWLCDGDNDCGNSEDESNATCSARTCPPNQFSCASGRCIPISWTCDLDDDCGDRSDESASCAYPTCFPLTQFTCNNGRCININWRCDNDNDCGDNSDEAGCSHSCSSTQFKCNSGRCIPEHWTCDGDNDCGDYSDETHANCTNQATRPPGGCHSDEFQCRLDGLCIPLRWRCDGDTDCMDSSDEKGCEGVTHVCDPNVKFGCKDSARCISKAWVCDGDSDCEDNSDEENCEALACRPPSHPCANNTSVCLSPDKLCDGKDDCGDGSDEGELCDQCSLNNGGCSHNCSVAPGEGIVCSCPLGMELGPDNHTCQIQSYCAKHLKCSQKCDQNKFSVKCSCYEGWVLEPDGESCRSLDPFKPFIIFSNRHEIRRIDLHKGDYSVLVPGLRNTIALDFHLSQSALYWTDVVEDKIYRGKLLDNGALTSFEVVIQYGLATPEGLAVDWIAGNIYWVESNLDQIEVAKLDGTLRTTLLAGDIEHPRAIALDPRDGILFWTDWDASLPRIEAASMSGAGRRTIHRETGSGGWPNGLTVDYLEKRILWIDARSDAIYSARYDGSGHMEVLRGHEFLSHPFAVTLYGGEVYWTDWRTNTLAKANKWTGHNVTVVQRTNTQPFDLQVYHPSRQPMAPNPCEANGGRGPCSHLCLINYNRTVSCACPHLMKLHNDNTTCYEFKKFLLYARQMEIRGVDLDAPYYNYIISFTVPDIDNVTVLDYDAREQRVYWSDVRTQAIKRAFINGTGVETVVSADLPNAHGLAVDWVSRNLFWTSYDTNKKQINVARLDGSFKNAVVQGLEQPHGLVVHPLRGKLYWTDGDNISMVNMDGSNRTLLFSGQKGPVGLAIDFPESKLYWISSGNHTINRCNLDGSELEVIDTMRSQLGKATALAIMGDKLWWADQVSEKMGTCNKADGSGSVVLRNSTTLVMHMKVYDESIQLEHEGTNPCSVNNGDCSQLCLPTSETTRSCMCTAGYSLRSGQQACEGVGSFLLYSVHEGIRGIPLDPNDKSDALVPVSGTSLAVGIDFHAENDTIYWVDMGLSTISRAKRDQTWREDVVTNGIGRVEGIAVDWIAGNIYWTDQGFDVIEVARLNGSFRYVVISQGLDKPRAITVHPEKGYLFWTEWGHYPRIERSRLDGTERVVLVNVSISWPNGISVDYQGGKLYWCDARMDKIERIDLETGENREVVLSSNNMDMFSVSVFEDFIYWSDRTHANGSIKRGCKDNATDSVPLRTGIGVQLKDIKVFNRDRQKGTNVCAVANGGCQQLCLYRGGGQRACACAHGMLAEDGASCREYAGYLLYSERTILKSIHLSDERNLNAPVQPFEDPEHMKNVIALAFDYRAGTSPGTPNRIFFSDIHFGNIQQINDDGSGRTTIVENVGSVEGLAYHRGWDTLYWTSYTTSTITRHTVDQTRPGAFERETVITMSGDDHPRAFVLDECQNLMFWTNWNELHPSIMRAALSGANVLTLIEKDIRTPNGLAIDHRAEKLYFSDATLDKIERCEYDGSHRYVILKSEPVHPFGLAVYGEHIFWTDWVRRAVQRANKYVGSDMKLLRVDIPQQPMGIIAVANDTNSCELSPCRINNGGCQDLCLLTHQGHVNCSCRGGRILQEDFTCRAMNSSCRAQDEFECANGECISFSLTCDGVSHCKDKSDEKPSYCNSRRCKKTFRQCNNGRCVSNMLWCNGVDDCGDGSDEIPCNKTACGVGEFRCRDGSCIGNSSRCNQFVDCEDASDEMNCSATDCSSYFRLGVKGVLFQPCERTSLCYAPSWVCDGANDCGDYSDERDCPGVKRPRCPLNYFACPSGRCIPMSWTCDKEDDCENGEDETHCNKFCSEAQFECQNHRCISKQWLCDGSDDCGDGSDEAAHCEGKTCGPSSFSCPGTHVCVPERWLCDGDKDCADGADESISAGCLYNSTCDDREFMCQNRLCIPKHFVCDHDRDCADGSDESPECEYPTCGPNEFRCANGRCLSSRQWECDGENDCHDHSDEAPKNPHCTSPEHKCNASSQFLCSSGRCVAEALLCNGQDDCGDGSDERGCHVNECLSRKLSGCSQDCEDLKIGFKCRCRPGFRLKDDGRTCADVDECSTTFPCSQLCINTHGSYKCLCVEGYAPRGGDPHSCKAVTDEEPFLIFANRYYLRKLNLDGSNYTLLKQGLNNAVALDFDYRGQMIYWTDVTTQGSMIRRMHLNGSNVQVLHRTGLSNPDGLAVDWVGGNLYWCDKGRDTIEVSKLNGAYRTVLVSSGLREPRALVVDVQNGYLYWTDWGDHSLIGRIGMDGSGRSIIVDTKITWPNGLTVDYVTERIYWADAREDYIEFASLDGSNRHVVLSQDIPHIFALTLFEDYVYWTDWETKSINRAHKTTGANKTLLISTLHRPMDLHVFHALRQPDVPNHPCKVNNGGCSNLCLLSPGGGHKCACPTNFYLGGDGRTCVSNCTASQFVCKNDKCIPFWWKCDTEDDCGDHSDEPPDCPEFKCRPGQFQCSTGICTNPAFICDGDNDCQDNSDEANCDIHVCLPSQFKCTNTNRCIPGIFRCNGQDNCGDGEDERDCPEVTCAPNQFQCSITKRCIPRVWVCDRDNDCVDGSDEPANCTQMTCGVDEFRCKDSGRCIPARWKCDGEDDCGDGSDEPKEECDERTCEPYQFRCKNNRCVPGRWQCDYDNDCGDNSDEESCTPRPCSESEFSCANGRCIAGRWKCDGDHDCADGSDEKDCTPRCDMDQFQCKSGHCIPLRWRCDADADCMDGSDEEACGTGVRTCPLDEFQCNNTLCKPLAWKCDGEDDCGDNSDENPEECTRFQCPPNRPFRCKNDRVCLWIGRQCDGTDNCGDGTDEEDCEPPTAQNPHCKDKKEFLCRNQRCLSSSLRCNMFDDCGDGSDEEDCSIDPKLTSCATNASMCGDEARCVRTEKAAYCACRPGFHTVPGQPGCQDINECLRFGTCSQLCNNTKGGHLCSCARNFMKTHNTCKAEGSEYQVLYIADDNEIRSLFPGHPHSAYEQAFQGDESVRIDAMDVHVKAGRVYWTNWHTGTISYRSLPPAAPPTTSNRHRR
Chain of low density lipoprotein receptor-related protein (LRP) (G3V928 3945-4545 limits assumed): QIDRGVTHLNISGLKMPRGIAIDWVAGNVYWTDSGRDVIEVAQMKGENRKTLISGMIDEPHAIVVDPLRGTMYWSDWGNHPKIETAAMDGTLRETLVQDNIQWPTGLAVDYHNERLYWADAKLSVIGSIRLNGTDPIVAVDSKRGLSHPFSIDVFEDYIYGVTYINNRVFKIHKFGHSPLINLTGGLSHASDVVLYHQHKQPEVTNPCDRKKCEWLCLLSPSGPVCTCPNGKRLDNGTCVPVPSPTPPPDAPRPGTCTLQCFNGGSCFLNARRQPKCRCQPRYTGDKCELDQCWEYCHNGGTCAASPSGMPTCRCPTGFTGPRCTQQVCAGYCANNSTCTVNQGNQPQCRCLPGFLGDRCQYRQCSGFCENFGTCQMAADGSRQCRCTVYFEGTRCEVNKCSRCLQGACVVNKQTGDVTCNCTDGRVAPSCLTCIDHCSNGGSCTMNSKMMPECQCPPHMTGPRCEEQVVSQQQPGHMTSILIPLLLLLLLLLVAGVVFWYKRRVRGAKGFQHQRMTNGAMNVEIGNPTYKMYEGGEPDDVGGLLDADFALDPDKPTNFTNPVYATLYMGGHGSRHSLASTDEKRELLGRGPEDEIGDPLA

[8] = capillary depletion after in situ brain perfusion; type: in vivo, rat; settings: 120 s perfusion, 30 s post wash
[9] = cited from earlier work; remark: listed apart in the source

N[C@@H](Cc1ccccc1)C(=O)O [L-phenylalanine]
effect on Kin for brain uptake of 125I-ANG1005 ([1]; co-perfusion with L-phenylalanine 1 mM): None of the four agents produced a statistically significant decrease; also recorded: not inhibited

OC[C@H]1O[C@@](CO)(O[C@H]2O[C@H](CO)[C@@H](O)[C@H](O)[C@H]2O)[C@@H](O)[C@@H]1O [^14C-sucrose, sucrose]
brain vascular volume Vv (brain distribution space of 14C-sucrose) [2]: 1.2 ± 0.2 × 10^−2 mL/g

CN(C)CCCN1c2ccccc2Sc2ccc(Cl)cc21 [chlorpromazine, chlorpromazine hydrochloride]
effect on Kin for brain uptake of 125I-ANG1005 ([1]; co-perfusion with chlorpromazine 100 μM): None of the four agents produced a statistically significant decrease; also recorded: failed to alter

COc1ccc2c(c1)c(CC(=O)O)c(C)n2C(=O)c1ccc(Cl)cc1 [indomethacin]
effect on Kin for brain uptake of 125I-ANG1005 ([1]; co-perfusion with indomethacin 300 μM): None of the four agents produced a statistically significant decrease; also recorded: failed to alter

CC(=O)O[C@H]1C(=O)[C@@]2(C)[C@H]([C@H](OC(=O)c3ccccc3)[C@]3(O)C[C@H](OC(=O)[C@H](O)[C@@H](NC(=O)c4ccccc4)c4ccccc4)C(C)=C1C3(C)C)[C@]1(OC(C)=O)CO[C@@H]1C[C@@H]2O [paclitaxel]
lowering of brain drug content by vascular correction [3]: ~ 84%
rise of brain paclitaxel concentrations on inhibition of active efflux transport [4]: 6–10 fold
BBB transfer coefficient (Kin) for brain uptake [2]: 8.5 ± 0.5 × 10^−5 mL/s/g

angiopep-2
brain 14C-sucrose space in the presence of the tracer (BBB permeability) [5]: not altered from control
transcytosis across a brain endothelial monolayer system in vitro [6]: enhanced transcytosis
reduction of brain 125I-ANG1005 uptake [7]: 30–40%
brain tracer in parenchymal fraction [8]: > 70%
brain tracer in vascular (capillary) pellet [8]: < 30%
brain uptake by in situ perfusion [9]: improved brain uptake

poly-L-lysine
effect on Kin for brain uptake of 125I-ANG1005 ([1]; co-perfusion with poly-l-lysine 25 μM): not inhibited
effect on Kin for brain uptake of 125I-ANG1005 ([1]; co-perfusion with poly-l-lysine 25 μM, listed as poly-l-lysine): None of the four agents produced a statistically significant decrease

— publication PMC2896053 (Pharmaceutical research, 2009)
